According to US9447086B2, “6-amino acid heteroaryldihydropyrimidines for the treatment and prophylaxis of hepatitis B virus infection” (priority 2012, dated 2016):
Where two headings read alike, the source gives them in different places.

Assays:
[1] = system: HBV; test: Anti-HBV activity in vitro in HepG2.2.15 cells (extracellular HBV DNA by qPCR); assay type: cell-based, Hepatitis B virus; settings: Hepatitis B virus
Method in brief: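 HepG2.2.15 cells, which constitutively produce HBV, were seeded overnight and then treated for 5 days with half-log serially diluted compounds at 0.5% final DMSO. Extracellular HBV DNA in culture supernatant was extracted and quantified by qPCR.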

[2] = Cytotoxicity (CC50) in HepDE19 cells, CCK-8 cell viability; assay type: cell-based; settings: human, HepDE19 cells
Description: HepG2.2.15 and HepDE19 are stably-transfected cell lines containing the HBV genome. Both cell lines are derived from the hepatoblastoma cell line Hep G2 (American Type Culture Collection, ATCC® HB-8065™) by the published procedures described in references: MA Selles et al. Proc. Natl. Acad. Sci. USA 1987, 84, 1005-1009 and H Guo et al. Journal of Virology 2007, 81, 12472-12484, respectively. Both cell lines were maintained in Dulbecco's modified Eagle's medium (DMEM)-F12 medium supplemented with 10% fetal bovine serum, 100 U/mL penicillin, 100 μg/mL streptomycin, and 0.5 mg/mL of G418.
Five days after treatment, cell viability was measured by addition of 20 μL of CCK-8 reagent. Two hours after incubation at 37° C., the absorbance at wavelengths of 450 nm and 630 nm (OD450 and OD630) was recorded by a plate reader.

[3] = system: HBV; test: Selectivity index (CC50 value/EC50 value); assay type: cell-based, Hepatitis B virus
Description: Based on FDA guidance, in order to support clinical testing in humans, the assessment of acceptable risk-benefit has to be achieved by providing clear evidence of in vitro antiviral activity (EC50) and cytotoxicity (CC50). It is important to establish that an investigational product has antiviral activity at concentrations that can be achieved in vivo without inducing toxic effects to cells. Furthermore, in a cell culture model, apparent antiviral activity of an investigational product can be the result of host cell death after exposure to the product. The relative effectiveness of the compound in inhibiting viral replication compared to inducing cell death is defined as the selectivity index (CC50 value/EC50 value). It is desirable to have a high selectivity index giving maximum antiviral activity with minimal cell toxicity.
The relative effectiveness of the compound in inhibiting viral replication compared to inducing cell death is defined as the selectivity index (CC50 value/EC50 value). It is desirable to have a high selectivity index giving maximum antiviral activity with minimal cell toxicity.

[4] = Metabolic stability study in human microsome; assay type: in vitro ADME
Method in brief: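 Human liver microsomes (0.5 mg/mL) with 1 μM compound in 100 mM phosphate pH 7.4 at 37 °C, started with 1 mM NADPH or an NADPH-regenerating system. Samples taken at 0, 3, 6, 9, 15 and 30 min, quenched in methanol. Parent remaining measured by LC-MS/MS; no-cofactor controls included.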

[5] = Lyophilisation solubility assay (Lysa); assay type: physicochemical; settings: phosphate buffer, pH 6.5, aqueous buffer, thermodynamic from solid
Method in brief: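 Duplicate samples from 10 mM DMSO stocks are dried, redissolved in 0.05 M phosphate buffer pH 6.5, stirred 1 h, shaken 2 h and left overnight. Filtrate and its 1/10 dilution are quantified by direct UV or HPLC-UV, giving solubility in μg/mL.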

[6] = HepG2.2.15 cells, in-house data, read-out: EC50

SMILES | EC50 [1, 6] | CC50 at 5 days ([2]; read-out: CC50) | Selectivity index (CC50/EC50) [3] | Human Hepatic Clearance [4] | solubility thermodynamic [5] | EC50 ([1]; HepG2.2.15) | CC50 at 5 days [2]
CCOC(=O)C1=C(CN2CC(F)(F)C[C@H]2C(=O)O)NC(c2nccs2)=N[C@H]1c1cccc(F)c1Cl [Example 64, (R)-6-((S)-2-Carboxy-4,4-difluoro-pyrrolidin-1-ylmethyl)-4-(2-chloro-3-fluoro-phenyl)-2-thiazol-2-yl-1,4-dihydro-pyrimidine-5-carboxylic acid ethyl ester] | 3 nM | 47000 nM | 15667 | 0 mL/min/kg | > 620 µg/mL |  | 
COC(=O)C1=C(CN2CCOC[C@H]2C(=O)O)NC(c2ncoc2C)=N[C@H]1c1ccc(F)cc1Br [Example 65, (S)-4-[(R)-6-(2-Bromo-4-fluoro-phenyl)-5-methoxycarbonyl-2-(5-methyl-oxazol-4-yl)-3,6-dihydro-pyrimidin-4-ylmethyl]-morpholine-3-carboxylic acid] | 7.6 nM | > 100000 nM | >13157 | 1.67 mL/min/kg | > 678 µg/mL |  | 
CCOC(=O)C1=C(CN2CCOC[C@H]2C(=O)O)NC(c2ncoc2C)=N[C@H]1c1ccc(F)cc1Br [Example 69, (S)-4-[(R)-6-(2-Bromo-4-fluoro-phenyl)-5-ethoxycarbonyl-2-(5-methyl-oxazol-4-yl)-3,6-dihydro-pyrimidin-4-ylmethyl]-morpholine-3-carboxylic acid] | 6 nM | 57000 nM | 9500 | 0 mL/min/kg | > 658 µg/mL |  | 
CCOC(=O)C1=C(CN2CCOC[C@H]2C(=O)O)NC(c2nccs2)=N[C@H]1c1cccc(F)c1F [Example 70, (S)-4-[(R)-6-(2,3-Difluoro-phenyl)-5-ethoxycarbonyl-2-thiazol-2-yl-3,6-dihydro-pyrimidin-4-ylmethyl]-morpholine-3-carboxylic acid] | 8.9 nM | > 100000 nM | >11236 | 2.22 mL/min/kg | > 611 µg/mL |  | 
COC(=O)C1=C(CN2CCOC[C@H]2C(=O)O)NC(c2nccs2)=N[C@H]1c1ccccc1Br [Example 71, (S)-4-[(R)-6-(2-Bromo-phenyl)-5-methoxycarbonyl-2-thiazol-2-yl-3,6-dihydro-pyrimidin-4-ylmethyl]-morpholine-3-carboxylic acid] | 4.8 nM | > 100000 nM | >20833 | 2.81 mL/min/kg | > 642 µg/mL |  | 
COC(=O)C1=C(CN2CC(F)(F)C[C@H]2C(=O)O)NC(c2nccs2)=N[C@H]1c1ccc(F)c(F)c1Cl [Example 74, (R)-6-((S)-2-Carboxy-4,4-difluoro-pyrrolidin-1-ylmethyl)-4-(2-chloro-3,4-difluoro-phenyl)-2-thiazol-2-yl-1,4-dihydro-pyrimidine-5-carboxylic acid methyl ester] | 2.1 nM | 72000 nM | 34286 | 0.51 mL/min/kg | > 655 µg/mL |  | 
COC(=O)C1=C(CN2CCOC[C@H]2C(=O)O)NC(c2nccs2)=N[C@H]1c1ccc(Cl)cc1F [Example 75, (S)-4-[(R)-6-(4-Chloro-2-fluoro-phenyl)-5-methoxycarbonyl-2-thiazol-2-yl-3,6-dihydro-pyrimidin-4-ylmethyl]-morpholine-3-carboxylic acid] | 18 nM | > 100000 nM | 5556 | 0 mL/min/kg | > 632 µg/mL |  | 
COC(=O)C1=C(CN2CCOC[C@H]2C(=O)O)NC(c2nccs2)=N[C@H]1c1ccc(Cl)c(F)c1 [Example 77, (S)-4-[(S)-6-(4-Chloro-3-fluoro-phenyl)-5-methoxycarbonyl-2-thiazol-2-yl-3,6-dihydro-pyrimidin-4-ylmethyl]-morpholine-3-carboxylic acid] |  | > 100000 nM | 14286 | 1.43 mL/min/kg | > 631 µg/mL | 7 nM | 
CCOC(=O)C1=C(CN2CCOC[C@H]2C(=O)O)NC(c2nccs2)=N[C@H]1c1ccc(Cl)c(F)c1 [Example 83, (S)-4-[(S)-6-(4-Chloro-3-fluoro-phenyl)-5-ethoxycarbonyl-2-thiazol-2-yl-3,6-dihydro-pyrimidin-4-ylmethyl]-morpholine-3-carboxylic acid] | 1.5 nM | 25000 nM | 16440 | 1.77 mL/min/kg | > 652 µg/mL |  | 
COC(=O)C1=C(CN2CC(F)(F)C[C@H]2C(=O)O)NC(c2nccs2)=N[C@H]1c1ccc(F)cc1Br [Example 84, (R)-4-(2-Bromo-4-fluoro-phenyl)-6-((S)-2-carboxy-4,4-difluoro-pyrrolidin-1-ylmethyl)-2-thiazol-2-yl-1,4-dihydro-pyrimidine-5-carboxylic acid methyl ester] |  |  | >41667 | 9.3 mL/min/kg | > 668 µg/mL | 2.4 nM | > 100000 nM
COC(=O)C1=C(CN2CC(F)(F)C[C@H]2C(=O)O)NC(c2nccs2)=N[C@H]1c1ccc(Cl)cc1Cl [Example 85, (R)-6-((S)-2-Carboxy-4,4-difluoro-pyrrolidin-1-ylmethyl)-4-(2,4-dichloro-phenyl)-2-thiazol-2-yl-1,4-dihydro-pyrimidine-5-carboxylic acid methyl ester] | 6.2 nM | 66000 nM | 10694 | 6.91 mL/min/kg | > 599 µg/mL |  | 
COC(=O)C1=C(CN2CCOC[C@H]2C(=O)O)NC(c2nc(C3CC3)cs2)=N[C@H]1c1ccc(F)cc1Cl [Example 87, (3S)-4-[[(4R)-4-(2-Chloro-4-fluoro-phenyl)-2-(4-cyclopropylthiazol-2-yl)-5-methoxycarbonyl-1,4-dihydropyrimidin-6-yl]methyl]morpholine-3-carboxylic acid] | 22 nM | 100000 nM | >4545 | 6.86 mL/min/kg | > 600 µg/mL |  | 
CCOC(=O)C1=C(CN2CCOC[C@H]2C(=O)O)NC(c2nccs2)=N[C@H]1c1ccc(Br)cc1F [Example 93, (S)-4-[(R)-6-(4-Bromo-2-fluoro-phenyl)-5-ethoxycarbonyl-2-thiazol-2-yl-3,6-dihydro-pyrimidin-4-ylmethyl]-morpholine-3-carboxylic acid] | 4.3 nM | 30000 nM | 6977 | 1.24 mL/min/kg | > 690 µg/mL |  | 
COC(=O)C1=C(CN2CCOC[C@H]2C(=O)O)NC(c2nccs2)=N[C@H]1c1ccc(Br)cc1F [Example 94, (S)-4-[(R)-6-(4-Bromo-2-fluoro-phenyl)-5-methoxycarbonyl-2-thiazol-2-yl-3,6-dihydro-pyrimidin-4-ylmethyl]-morpholine-3-carboxylic acid] | 20 nM | 92000 nM | 4600 | 0.61 mL/min/kg | > 677 µg/mL |  | 
